Laboratory results: patent US10125134B2 (Mirati Therapeutics, Inc., priority 2016, dated 2018)
pIC50: −log10 of the molar value. Read-outs that look alike come from different tables or passages of the source.

What was measured:
KRas G12C = KRas G12C (Homo sapiens, UniProt P01116, C118S/C51S/C80L/G12C); test: KRas G12C Modification Assay (LCMS detection of covalent adduct); assay type: binding; settings: normalized percent of control; tested at 5 μM concentration for 3 hours
In short: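 Cys-light KRas G12C mutant protein incubated with compound in K-Ras assay buffer, reactions quenched at set time points with 25 mM acetic acid and analysed by intact-protein LC/MS on a C-3 column. Deconvoluted mass heights expressed as percent of control (POC) relative to compound-free protein.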

[1] = test system: NCI-H358 cells (express KRas G12C), Phospho-ERK; test: Cellular inhibition of KRas G12C: Phospho-ERK in NCI-H358 cells; assay type: cell-based; settings: pERK(Thr202/Tyr204) normalized with GAPDH, NCI-H358 cells, 3 hours, read-out: IC50
In short: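 IC50 derived by 4-parameter fit of GAPDH-normalized pERK(Thr202/Tyr204) signal, as percent of DMSO control. Signal came from in-cell immunodetection with infrared secondaries after 3 h compound exposure of KRas G12C NCI-H358 cells at 0.5% DMSO.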

Row | SMILES | POC (KRas G12C) | pIC50 ([1]; Homo sapiens, NCI-H358, 3 h) | pIC50 [1] | pIC50 ([1]; Homo sapiens)
1 | C=CC(=O)N1CCN(c2nc(OC[C@@H]3CCCN3C)nc3c2CCN(c2cccc(Cl)c2Cl)C3)C[C@@H]1CC#N [Example 420, 2-((S)-1-acryloyl-4-(7-(2,3-dichlorophenyl)-2-(((S)-1-methylpyrrolidin-2-yl)methoxy)-5,6,7,8-tetrahydropyrido[3,4-d]pyrimidin-4-yl)piperazin-2-yl)acetonitrile] | C (“C”>50% POC) | 6.00 to 10.00 | – | –
2 | C=CC(=O)N1CCN(c2nc(OC[C@@H]3CCCN3C)nc3c2CCN(c2cccc(Cl)c2OC)C3)C[C@@H]1CC#N [Example 421, 2-((S)-1-acryloyl-4-(7-(3-chloro-2-methoxyphenyl)-2-(((S)-1-methylpyrrolidin-2-yl)methoxy)-5,6,7,8-tetrahydropyrido[3,4-d]pyrimidin-4-yl)piperazin-2-yl)acetonitrile] | C (“C”>50% POC) | 6.00 to 10.00 | – | –
3 | CN(C)C/C=C/C(=O)N1CCN(c2nc(OC[C@H]3CCCN3C)nc3c2CCN(c2cccc(Cl)c2C(F)(F)F)C3)C[C@@H]1CC#N [Example 422, 2-((S)-4-(7-(3-chloro-2-(trifluoromethyl)phenyl)-2-(((R)-1-methylpyrrolidin-2-yl)methoxy)-5,6,7,8-tetrahydropyrido[3,4-d]pyrimidin-4-yl)-1-((E)-4-(dimethylamino)but-2-enoyl)piperazin-2-yl)acetonitrile] | C (“C”>50% POC) | 6.00 to 10.00 | – | –
4 | C=CC(=O)N1CCN(c2nc(OC[C@@H]3CCCN3C)nc3c2CCN(c2ccc(F)c(C)c2C)C3)C[C@@H]1CC#N [Example 423, 2-((S)-1-acryloyl-4-(7-(4-fluoro-2,3-dimethylphenyl)-2-(((S)-1-methylpyrrolidin-2-yl)methoxy)-5,6,7,8-tetrahydropyrido[3,4-d]pyrimidin-4-yl)piperazin-2-yl)acetonitrile] | C (“C”>50% POC) | 6.00 to 10.00 | – | –
5 | C=CC(=O)N1CCN(c2nc(OC[C@@H]3CCCN3C)nc3c2CCN(c2cccc(C)c2Cl)C3)C[C@@H]1CC#N [Example 424, 2-((S)-1-acryloyl-4-(7-(2-chloro-3-methylphenyl)-2-(((S)-1-methylpyrrolidin-2-yl)methoxy)-5,6,7,8-tetrahydropyrido[3,4-d]pyrimidin-4-yl)piperazin-2-yl)acetonitrile] | C (“C”>50% POC) | 6.00 to 10.00 | – | –
6 | C=CC(=O)N1CCN(c2nc(OC[C@@H]3C[C@@H](O)CN3C)nc3c2CCN(c2cccc(Cl)c2C(F)(F)F)C3)C[C@@H]1CC#N [Example 425, 2-((S)-1-acryloyl-4-(7-(3-chloro-2-(trifluoromethyl)phenyl)-2-(((2S,4R)-4-hydroxy-1-methylpyrrolidin-2-yl)methoxy)-5,6,7,8-tetrahydropyrido[3,4-d]pyrimidin-4-yl)piperazin-2-yl)acetonitrile] | C (“C”>50% POC) | 6.00 to 10.00 | – | –
7 | CN(C)C/C=C/C(=O)N1CCN(c2nc(OC[C@@H]3CCCN3C)nc3c2CCN(c2cccc(Cl)c2C(F)(F)F)C3)C[C@@H]1CC#N [Example 426, 2-((S)-4-(7-(3-chloro-2-(trifluoromethyl)phenyl)-2-(((S)-1-methylpyrrolidin-2-yl)methoxy)-5,6,7,8-tetrahydropyrido[3,4-d]pyrimidin-4-yl)-1-((E)-4-(dimethylamino)but-2-enoyl)piperazin-2-yl)acetonitrile] | C (“C”>50% POC) | 6.00 to 10.00 | – | –
8 | C=CC(=O)N1CCN(c2nc(OC[C@@H]3CCCN3C)nc3c2CCN(c2cccc(Cl)c2C(F)(F)F)C3)C[C@@H]1CC#N [Example 427, 2-((S)-1-acryloyl-4-(7-(3-chloro-2-(trifluoromethyl)phenyl)-2-(((S)-1-methylpyrrolidin-2-yl)methoxy)-5,6,7,8-tetrahydropyrido[3,4-d]pyrimidin-4-yl)piperazin-2-yl)acetonitrile] | C (“C”>50% POC) | 6.00 to 10.00 | – | –
9 | C=CC(=O)N1CCN(c2nc(OC[C@@H]3CCCN3C)nc3c2CCN(c2cccc4ccccc24)C3)CC1COC (stereo partly drawn) [Example 428, 1-(2-(methoxymethyl)-4-(2-(((S)-1-methylpyrrolidin-2-yl)methoxy)-7-(naphthalen-1-yl)-5,6,7,8-tetrahydropyrido[3,4-d]pyrimidin-4-yl)piperazin-1-yl)prop-2-en-1-one] | C (“C”>50% POC) | – | < 6.00 | –

More lines, main results first:

Row | POC (KRas G12C) | SMILES | pIC50 ([1]; Homo sapiens, NCI-H358, 3 h) | pIC50 [1] | pIC50 ([1]; Homo sapiens)
10 | C (“C”>50% POC) | C=CC(=O)N1CCN(c2nc(OC[C@@H]3CCCN3C)nc3c2CCN(c2cccc4ccncc24)C3)C[C@@H]1CC#N [Example 429, 2-((S)-1-acryloyl-4-(7-(isoquinolin-8-yl)-2-(((S)-1-methylpyrrolidin-2-yl)methoxy)-5,6,7,8-tetrahydropyrido[3,4-d]pyrimidin-4-yl)piperazin-2-yl)acetonitrile] | 6.00 to 10.00 | – | –
11 | C (“C”>50% POC) | C=CC(=O)N1CCN(c2nc(OC[C@@H]3CCCN3C)nc3c2CCN(c2nncc4ccccc24)C3)C[C@@H]1CC#N [Example 430, 2-((S)-1-acryloyl-4-(2-(((S)-1-methylpyrrolidin-2-yl)methoxy)-7-(phthalazin-1-yl)-5,6,7,8-tetrahydropyrido[3,4-d]pyrimidin-4-yl)piperazin-2-yl)acetonitrile] | < 6.00 | – | –
12 | C (“C”>50% POC) | C=CC(=O)N1CCN(c2nc(OC[C@H]3CCCCN3C)nc3c2CCN(c2cccc4ccccc24)C3)C[C@@H]1CC#N [Example 431, 2-((S)-1-acryloyl-4-(2-(((R)-1-methylpiperidin-2-yl)methoxy)-7-(naphthalen-1-yl)-5,6,7,8-tetrahydropyrido[3,4-d]pyrimidin-4-yl)piperazin-2-yl)acetonitrile] | 6.00 to 10.00 | – | –
13 | C (“C”>50% POC) | C=CC(=O)N1CCN(c2nc(OC[C@@H]3CCCN3C)nc3c2CCN(c2cccc4ccccc24)C3)C[C@@H]1CCOC [Example 432, 1-((S)-2-(2-methoxyethyl)-4-(2-(((S)-1-methylpyrrolidin-2-yl)methoxy)-7-(naphthalen-1-yl)-5,6,7,8-tetrahydropyrido[3,4-d]pyrimidin-4-yl)piperazin-1-yl)prop-2-en-1-one] | < 6.00 | – | –
14 | C (“C”>50% POC) | C=CC(=O)N1CCN(c2nc(OC[C@@H]3CCCN3C)nc3c2CCN(c2cccc4cccc(C(F)(F)F)c24)C3)C[C@@H]1CC#N [Example 433, 2-((S)-1-acryloyl-4-(2-(((S)-1-methylpyrrolidin-2-yl)methoxy)-7-(8-(trifluoromethyl)naphthalen-1-yl)-5,6,7,8-tetrahydropyrido[3,4-d]pyrimidin-4-yl)piperazin-2-yl)acetonitrile] | 6.00 to 10.00 | – | –
15 | C (“C”>50% POC) | C=CC(=O)N1CCN(c2nc(OC[C@@H]3CCCN3C)nc3c2CCN(c2cccc4ccn(C)c24)C3)C[C@@H]1CC#N [Example 434, 2-((S)-1-acryloyl-4-(7-(1-methyl-1H-indol-7-yl)-2-(((S)-1-methylpyrrolidin-2-yl)methoxy)-5,6,7,8-tetrahydropyrido[3,4-d]pyrimidin-4-yl)piperazin-2-yl)acetonitrile] | 6.00 to 10.00 | – | –
16 | C (“C”>50% POC) | C=CC(=O)N1CCN(c2nc(OC[C@@H]3C[C@@H](F)CN3C)nc3c2CCN(c2cccc(C)c2C)C3)C[C@@H]1CC#N [Example 435, 2-((S)-1-acryloyl-4-(7-(2,3-dimethylphenyl)-2-(((2S,4R)-4-fluoro-1-methylpyrrolidin-2-yl)methoxy)-5,6,7,8-tetrahydropyrido[3,4-d]pyrimidin-4-yl)piperazin-2-yl)acetonitrile] | 6.00 to 10.00 | – | –
17 | C (“C”>50% POC) | Cc1cccc(N2CCc3c(nc(OC[C@@H]4C[C@@H](F)CN4C)nc3N3CCN(C(=O)/C=C/CN(C)C)[C@@H](CC#N)C3)C2)c1C [Example 436, 2-((S)-1-((E)-4-(dimethylamino)but-2-enoyl)-4-(7-(2,3-dimethylphenyl)-2-(((2S,4R)-4-fluoro-1-methylpyrrolidin-2-yl)methoxy)-5,6,7,8-tetrahydropyrido[3,4-d]pyrimidin-4-yl)piperazin-2-yl)acetonitrile] | – | – | 6.00 to 10.00
18 | C (“C”>50% POC) | C=CC(=O)N1CCN(c2nc(OC[C@@H]3CCCN3C)nc3c2CCN(c2cccc4ccccc24)C3)C(CC#N)C1 (stereo partly drawn) [Example 437, 2-(4-acryloyl-1-(2-(((S)-1-methylpyrrolidin-2-yl)methoxy)-7-(naphthalen-1-yl)-5,6,7,8-tetrahydropyrido[3,4-d]pyrimidin-4-yl)piperazin-2-yl)acetonitrile] | < 6.00 | – | –
19 | C (“C”>50% POC) | C=CC(=O)N1CCN(c2nc(OC[C@@H]3[C@H](F)CCN3C)nc3c2CCN(c2cccc4ccccc24)C3)C[C@@H]1CC#N [Example 438, 2-((S)-1-acryloyl-4-(2-(((2R,3R)-3-fluoro-1-methylpyrrolidin-2-yl)methoxy)-7-(naphthalen-1-yl)-5,6,7,8-tetrahydropyrido[3,4-d]pyrimidin-4-yl)piperazin-2-yl)acetonitrile] | 6.00 to 10.00 | – | –
20 | C (“C”>50% POC) | C=CC(=O)N1CCN(c2nc(OC[C@@H]3CCCN3C)nc3c2CCN(c2cccc4cccn24)C3)C[C@@H]1CC#N [Example 440, 2-((S)-1-acryloyl-4-(7-(indolizin-5-yl)-2-(((S)-1-methylpyrrolidin-2-yl)methoxy)-5,6,7,8-tetrahydropyrido[3,4-d]pyrimidin-4-yl)piperazin-2-yl)acetonitrile] | 6.00 to 10.00 | – | –
